Results from patent publication US20230286973A1, “PROTEIN SECRETION INHIBITORS” (KEZAR LIFE SCIENCES, priority 2020, published 2023).
Like-named read-outs stand apart in the source and are kept apart here.

Experiments:
[1] = test system: PD1-ss+10aa/Gaussia Luciferase; assay: Dox-Induced PD1-ss-Gluc Assay; assay type: cell-based
In short: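 Flp-In 293 T-REx cells stably carrying a doxycycline-inducible Gaussia luciferase fused to the PD1 signal sequence plus 10 aa were plated the day before. Compound dilutions in DMSO/media containing doxycycline were then added and incubated at 37 °C, 5% CO2. Data for undefined stereochemistry refer to stereoisomer mixtures.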

[2] = test system: TNFα-FL/Gaussia Luciferase; assay: Dox Induced TNFα-FL-Gluc Assay; assay type: cell-based; conditions: for IC50: 24 hr Dox induction, 293FRT/TO cells, read-out: 24 hr Dox Inducible TNFaFLGluc 293FRT/TO: Mean IC50; for 24 hr Dox Inducible TNFaFLGluc 293FRT/TO: TNF/PD1: ratio of TNFaFLGluc IC50 to PD1ssGluc IC50
In short: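 Cell line: stable Flp-In 293 T-REx, TNFα-FL(1-233)-Gaussia luciferase fusion, T-REx-inducible. Plated day -1; compounds in DMSO/media + doxycycline, 37 °C, 5% CO2. Undefined stereocentres = mixture tested.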

[3] = test system: HER3-ss+4aa/Gaussia Luciferase; assay: Dox-Induced Her3-ss-Gluc Assay; assay type: cell-based
In short: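 Flp-In 293 T-REx cells, stable HER3-ss+4aa/Gaussia luciferase insert, hygromycin/blasticidin selected; plated day before; compound in DMSO/media + doxycycline; 37° C., 5% CO2.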

[4] = test system: IL-2-FL/Gaussia Luciferase; assay: Dox Induced IL2-FL-Gluc Assay; assay type: cell-based; conditions: for IC50: 24 hr Dox induction, 293FRT/TO cells, read-out: 24 hr Dox Inducible IL2FLGluc 293FRT/TO: Mean IC50; for 24 hr Dox Inducible IL2FLGluc 293FRT/TO: IL2/PD1: ratio of IL2FLGluc IC50 to PD1ssGluc IC50
In short: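 Stable Flp-In 293 T-REx line, Tet-regulated IL-2 (aa 1-153)–Gaussia luciferase fusion; hygromycin/blasticidin selected. Plated day -1; compound + doxycycline added next day; 37° C, 5% CO2.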

[5] = test system: multiple myeloma cell line NCI-H929; assay: H929 Cell Viability Assay; assay type: cell-based, human; conditions: Homo sapiens, NCI-H929 cells, Celltiter-Glo
In short: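 Cells in RPMI 1640/10% FBS; compound dilutions in DMSO/media; 48 h, 37° C, 5% CO2; CellTiter-Glo luciferase readout for viability.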

[6] = test system: multiple myeloma cell line U266B1; assay: U266 Cell Viability Assay; assay type: cell-based, human; conditions: Homo sapiens, U266B1 cells, Celltiter-Glo
In short: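 Luminescent ATP read-out (CellTiter-Glo) after 48 h compound exposure at 37° C., 5% CO2; cells maintained in RPMI 1640/10% FBS/2 mM glutamine/pen-strep, compounds diluted in DMSO/media.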

[7] = Liver Microsome Stability Assay (rat); conditions: rat liver microsomes, with NADPH, 1.0 uM compound
Procedure: (§1) Stability of a compound was assessed in the presence of liver microsomes from various sources—mouse, rat, monkey and human liver microsomes. 1.0 uM compound, 0.4% DMSO in 0.1 M Potassium Phosphate with 1.0 mg/mL liver microsomes, were incubated at 37° C. with or without 1 mM NADPH. The samples were quenched at 0, and 30 minutes.

[8] = Liver Microsome Stability Assay (mouse); conditions: mouse liver microsomes, with NADPH, 1.0 uM compound
Procedure: as §1

[9] = Liver Microsome Stability Assay (human); conditions: human liver microsomes, with NADPH, 1.0 uM compound
Procedure: as §1

[10] = Liver Microsome Stability Assay (monkey); conditions: monkey liver microsomes, with NADPH, 1.0 uM compound
Procedure: as §1

[11] = 24 hr Dox induction; 293FRT/TO cells; read-out: 24 hr Dox Inducible PD1ssGluc 293FRT/TO: Mean IC50
[12] = 24 hr Dox induction; 293FRT/TO cells; read-out: 24 hr Dox Inducible Her3(ss + 4)Gluc 293FRT/TO: Mean IC50

SMILES | IC50 [2] | IC50 [4] | Liver Microsome Stability (Multiple Species): Rat - % Remaining after 30 min w/NADPH [7] | Liver Microsome Stability (Multiple Species): Mouse - % Remaining after 30 min w/NADPH [8] | Liver Microsome Stability (Multiple Species): Human - % Remaining after 30 min w/NADPH [9] | Liver Microsome Stability (Multiple Species): Monkey - % Remaining after 30 min w/NADPH [10] | IC50 [1, 11] | IC50 [3, 12] | EC50 ([5]; NCI-H929, 48 h) | EC50 ([6]; U-266, 48 h) | IC50 ([1]; read-out: 24 hr Dox Inducible PD1ssGluc 293FRT/TO: Mean IC50; 24 hr Dox induction; 293FRT/TO cells) | 24 hr Dox Inducible TNFaFLGluc 293FRT/TO: TNF/PD1 [2] | IC50 ([3]; read-out: 24 hr Dox Inducible Her3(ss + 4)Gluc 293FRT/TO: Mean IC50; 24 hr Dox induction; 293FRT/TO cells) | 24 hr Dox Inducible IL2FLGluc 293FRT/TO: IL2/PD1 [4] | EC50 ([5]; 48 hr) | EC50 ([6]; U-266, 48 hr)
O=C(Nc1nc([C@H]2CCCN2c2ccc(OC3CCN(C(=O)CF)CC3)cc2)cs1)c1cccn1Cc1ccnc(F)c1 [Compound A90, (R)-N-(4-(1-(4-((1-(2-fluoroacetyl)piperidin-4-yl)oxy)phenyl)pyrrolidin-2-yl)thiazol-2-yl)-1-((2-fluoropyridin-4-yl)methyl)-1H-pyrrole-2-carboxamide] | 512 nM | 82.9 nM | 39.1% | 21.7% | 22.3% | 1.3% |  |  |  |  | 41.5 nM | 12.4 | 82.8 nM | 2 | 1080 nM | > 25000 nM
O=C(Nc1nc([C@H]2CCCN2c2ccc(OC3CCN(C(=O)C(F)F)CC3)cc2)cs1)c1cccn1Cc1ccnc(F)c1 [Compound A91, (R)-N-(4-(1-(4-((1-(2,2-difluoroacetyl)piperidin-4-yl)oxy)phenyl)pyrrolidin-2-yl)thiazol-2-yl)-1-((2-fluoropyridin-4-yl)methyl)-1H-pyrrole-2-carboxamide] | 148 nM | 25 nM | 19.7% | 27.4% | 43% | 2.34% | 14.8 nM | 26.5 nM | 346 nM | > 25000 nM |  | 10 |  | 1.7 |  | 
O=C(Nc1nc([C@H]2CCCN2c2ccc(OC3CCN(C(=O)C(F)(F)F)CC3)cc2)cs1)c1cccn1Cc1ccnc(F)c1 [Compound A92, (R)-1-((2-fluoropyridin-4-yl)methyl)-N-(4-(1-(4-((1-(2,2,2-trifluoroacetyl)piperidin-4-yl)oxy)phenyl)pyrrolidin-2-yl)thiazol-2-yl)-1H-pyrrole-2-carboxamide] | 254 nM | 30.6 nM | 43.6% | 52.3% | 63.5% | 22.5% | 23.3 nM | 47.3 nM | 463 nM | > 25000 nM |  | 10.9 |  | 1.3 |  | 
CC(=O)N1CCC(C)(Oc2ccc(N3CCC[C@@H]3c3csc(NC(=O)c4cccn4Cc4ccnc(F)c4)n3)cc2)CC1 [Compound A97, (R)-N-(4-(1-(4-((1-acetyl-4-methylpiperidin-4-yl)oxy)phenyl)pyrrolidin-2-yl)thiazol-2-yl)-1-((2-fluoropyridin-4-yl)methyl)-1H-pyrrole-2-carboxamide] | 162 nM | 32.8 nM | 42.4% | 0.22% | 6.01% | 0.4% | 18.8 nM | 22.1 nM | 448 nM | > 25000 nM |  | 8.64 |  | 1.7 |  | 

More lines, main results first:

IC50 [2] | IC50 [4] | Liver Microsome Stability (Multiple Species): Rat - % Remaining after 30 min w/NADPH [7] | Liver Microsome Stability (Multiple Species): Mouse - % Remaining after 30 min w/NADPH [8] | Liver Microsome Stability (Multiple Species): Human - % Remaining after 30 min w/NADPH [9] | Liver Microsome Stability (Multiple Species): Monkey - % Remaining after 30 min w/NADPH [10] | IC50 [1, 11] | IC50 [3, 12] | EC50 ([5]; NCI-H929, 48 h) | EC50 ([6]; U-266, 48 h) | SMILES | IC50 ([1]; read-out: 24 hr Dox Inducible PD1ssGluc 293FRT/TO: Mean IC50; 24 hr Dox induction; 293FRT/TO cells) | 24 hr Dox Inducible TNFaFLGluc 293FRT/TO: TNF/PD1 [2] | IC50 ([3]; read-out: 24 hr Dox Inducible Her3(ss + 4)Gluc 293FRT/TO: Mean IC50; 24 hr Dox induction; 293FRT/TO cells) | 24 hr Dox Inducible IL2FLGluc 293FRT/TO: IL2/PD1 [4] | EC50 ([5]; 48 hr) | EC50 ([6]; U-266, 48 hr)
187 nM | 26.3 nM | 0.11% | 1.18% | 4.24% | 0.14% | 12.3 nM | 27.1 nM | 390 nM | > 25000 nM | CC(=O)Nc1ccc(N2CCC[C@@H]2c2csc(NC(=O)c3cccn3Cc3ccnc(F)c3)n2)cc1F [Compound A93, (R)-N-(4-(1-(4-acetamido-3-fluorophenyl)pyrrolidin-2-yl)thiazol-2-yl)-1-((2-fluoropyridin-4-yl)methyl)-1H-pyrrole-2-carboxamide] |  | 15.1 |  | 2.1 |  | 
168 nM | 17.8 nM | 12.8% | 10.9% | 11.1% | 0.9% | 8.73 nM | 14.5 nM | 642 nM | > 25000 nM | [2H]c1c([2H])c([2H])c(N2CCC[C@@H]2c2csc(NC(=O)c3cccn3Cc3ccnc(F)c3)n2)c([2H])c1[2H] [Compound A94, (R)-1-((2-fluoropyridin-4-yl)methyl)-N-(4-(1-(phenyl-d5)pyrrolidin-2-yl)thiazol-2-yl)-1H-pyrrole-2-carboxamide] |  | 19.2 |  | 2 |  | 
133 nM | 18.6 nM | 13.9% | 10.2% | 8.25% | 0.88% | 8.34 nM | 14.8 nM | 590 nM | > 25000 nM | [2H]c1cc([2H])cc(N2CCC[C@@H]2c2csc(NC(=O)c3cccn3Cc3ccnc(F)c3)n2)c1 [Compound A95, (R)-1-((2-fluoropyridin-4-yl)methyl)-N-(4-(1-(phenyl-3,5-d2)pyrrolidin-2-yl)thiazol-2-yl)-1H-pyrrole-2-carboxamide] |  | 15.9 |  | 2.2 |  | 
40.5 nM | 4.21 nM | 1% | 0.28% | 1.42% | 0.12% | 1.49 nM | 4.2 nM | 34.2 nM | > 25000 nM | CC(=O)Nc1cc(F)c(N2CCC[C@@H]2c2csc(NC(=O)c3cccn3Cc3ccnc(F)c3)n2)c(F)c1 [Compound A96, (R)-N-(4-(1-(4-acetamido-2,6-difluorophenyl)pyrrolidin-2-yl)thiazol-2-yl)-1-((2-fluoropyridin-4-yl)methyl)-1H-pyrrole-2-carboxamide] |  | 27.2 |  | 2.8 |  | 
20.1 nM | 2.25 nM | 1.18% | 1.29% | 2.43% | 0.48% | 0.91 nM | 2.05 nM | 22.4 nM | > 25000 nM | CC(=O)Nc1ccc(N2CCC[C@@H]2c2csc(NC(=O)c3cccn3Cc3ccnc(F)c3)n2)c(F)c1 [Compound A98, (R)-N-(4-(1-(4-acetamido-2-fluorophenyl)pyrrolidin-2-yl)thiazol-2-yl)-1-((2-fluoropyridin-4-yl)methyl)-1H-pyrrole-2-carboxamide] |  | 22.2 |  | 2.5 |  | 
